Measured values published in patent US11052092B2, “N-{[2-(piperidin-1-yl)phenyl](phenyl)methyl}-2-(3-oxo-3,4-dihydro-2H-1,4-benzoxazin-7-yl)acetamide derivatives and related compounds as ROR-gamma modulators for treating autoimmune diseases” (Genfit, priority 2017, dated 2021).

Molecular target: T1, human RORγt (Homo sapiens, UniProt P51449)
T1 construct: the full-length cDNA of human RORγt; expressed in transfected cells; host or cells: COS-7 (monkey kidney)
T1 sequence (P51449 1-497 isoform P51449-2): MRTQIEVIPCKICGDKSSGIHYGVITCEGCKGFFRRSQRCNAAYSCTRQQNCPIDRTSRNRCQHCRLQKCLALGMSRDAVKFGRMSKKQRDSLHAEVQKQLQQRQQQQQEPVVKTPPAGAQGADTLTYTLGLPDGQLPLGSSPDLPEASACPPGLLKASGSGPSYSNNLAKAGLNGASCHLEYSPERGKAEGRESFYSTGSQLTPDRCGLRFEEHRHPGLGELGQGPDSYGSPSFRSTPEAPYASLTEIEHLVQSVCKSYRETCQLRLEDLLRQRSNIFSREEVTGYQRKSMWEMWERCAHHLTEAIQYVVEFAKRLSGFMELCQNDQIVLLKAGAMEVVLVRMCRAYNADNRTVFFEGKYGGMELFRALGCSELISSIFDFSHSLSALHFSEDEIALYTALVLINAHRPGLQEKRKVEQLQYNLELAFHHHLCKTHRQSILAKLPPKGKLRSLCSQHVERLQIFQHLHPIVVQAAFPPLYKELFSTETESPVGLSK
Assay: RORE Luciferase/RORγt transactivation assay
Type: cell-based
Settings: COS-7 cells transfected with human IL-17 promoter luciferase reporter and RORγt plasmid; 20 h with compound; read-out: IC50, RORγt activity inhibition
Protocol: It is well known that RORγ binds to a conserved non-coding sequence (CNS) enhancer element in the IL-17 promoter.
Culture medium was changed every 2 days.
The 4.3 Kb human IL-17 promoter containing the RORγ-specific CNS enhancer element was PCR amplified from human genomic DNA and cloned into a pGL3-TKLuc2Cp reporter plasmid.
The luciferase reporter plasmid and the RORγt overexpression plasmid were transfected into COS-7 cell line using 4 μLJetPEI™/μg of DNA. Briefly, 150 ng of DNA (ration ½ between RORE-Tk Luc2Cp and cDNA RORγt or the empty vector for the negative control) was served to transfect adherent COS-7 cells in a […] culture flask, in complete medium (see cos-7 cell line culture).
Cells were then detached (using trypsin) and washed by centrifugation at 300 g for 10 minutes. Cell pellet was resuspended in serum free/phenol red free DMEM and seeded in 384 well plates at a density of 10000 cells/well and then incubated for 4 h at 37° C.
Compounds were dissolved in 100% DMSO to obtain 10 mM stock solutions. For each compound, test concentrations were diluted in serum free/phenol red free DMEM using the Genesis Freedom 200™ (TECAN) and added to the cells to obtain a 0.3% DMSO final concentration (in a final volume of 40 μL per well).
The luciferase activity was then measured with 40 μL/well steady-Glo Luciferase assay system (Promega, Madison, Wis.) and after incubation at room temperature for 30 minutes. The luminescence was estimated using the Ultra384 reader (TECAN). Data were collected and analyzed using GraphPad Prism software (GraphPad Software V5.02, San Diego Calif. USA). IC50 in μM and Emax in % were reported for each compound.

Row | Structure (SMILES) | IC50 [nM]
1 | Cc1ccc(C(NC(=O)C2(c3ccc4c(c3)OCC(=O)N4)CC2)c2cccc(C)n2)c(C)c1 (stereo not shown) [Cpd. 136, N-[(2,4-dimethylphenyl)(6-methylpyridin-2-yl)methyl]-1-(3-oxo-3,4-dihydro-2H-1,4-benzoxazin-7-yl)cyclopropane-1-carboxamide] | 10 to 100
2 | Cc1ccc(C(NC(=O)C2(c3ccc4c(c3)OCC(=O)N4)CC2)c2ccco2)c(C)c1 (stereo not shown) [Cpd. 139, N-[(2,4-dimethylphenyl)(furan-2-yl)methyl]-1-(3-oxo-3,4-dihydro-2H-1,4-benzoxazin-7-yl)cyclopropane-1-carboxamide] | 10 to 100
3 | Cc1ccc(C(NC(=O)C2(c3ccc4c(c3)OCC(=O)N4)CC2)c2ccc(Cl)cc2)c(C)c1 (stereo not shown) [Cpd. 140, N-[(4-chlorophenyl)(2,4-dimethylphenyl)methyl]-1-(3-oxo-3,4-dihydro-2H-1,4-benzoxazin-7-yl)cyclopropane-1-carboxamide] | 1000 to 10000
4 | Cc1ccc(C(NC(=O)C2(c3ccc4c(c3)CCC4=O)CC2)c2ccc(C)o2)c(C)c1 (stereo not shown) [Cpd. 141, N-[(2,4-dimethylphenyl)(5-methylfuran-2-yl)methyl]-1-(1-oxo-2,3-dihydro-1H-inden-5-yl)cyclopropane-1-carboxamide] | 100 to 1000
5 | Cc1ccc(C(NC(=O)C2(c3ccc4c(c3)OCC(=O)N4)CC2)c2cccc(Cl)c2)c(C)c1 (stereo not shown) [Cpd. 143, N-[(3-chlorophenyl)(2,4-dimethylphenyl)methyl]-1-(3-oxo-3,4-dihydro-2H-1,4-benzoxazin-7-yl)cyclopropane-1-carboxamide] | 10 to 100
6 | Cc1ccc(C(NC(=O)C2(c3ccc4c(c3)OCC(=O)N4)CC2)c2ccc(Cl)o2)c(N2CCCCC2)c1 (stereo not shown) [Cpd. 145, N-[(5-chlorofuran-2-yl)[4-methyl-2-(piperidin-1-yl)phenyl]methyl]-1-(3-oxo-3,4-dihydro-2H-1,4-benzoxazin-7-yl)cyclopropane-1-carboxamide] | 10 to 100
7 | Cc1ccc(C(NC(=O)C2(c3ccc4c(c3)C(C)(C)C(=O)N4)CC2)c2ccc(C)o2)c(C)c1 (stereo not shown) [Cpd. 146, 1-(3,3-dimethyl-2-oxo-2,3-dihydro-1H-indol-5-yl)-N-[(2,4-dimethylphenyl)(5-methylfuran-2-yl)methyl]cyclopropane-1-carboxamide] | 10 to 100
8 | Cc1ccc(C(NC(=O)C2(c3ccc4c(ccn4CCC(=O)O)c3)CC2)c2ccc(C)o2)c(C)c1 (stereo not shown) [Cpd. 152, 3-[5-(1-{[(2,4-dimethylphenyl)(5-methylfuran-2-yl)methyl]carbamoyl}cyclopropyl)-1H-indol-1-yl]propanoic acid] | 10 to 100
9 | Cc1ccc(C(NC(=O)C2(c3ccc4c(ccn4CCC(=O)O)c3)CC2)c2ccc(C)o2)c(N2CCCCC2)c1 (stereo not shown) [Cpd. 154, 3-{5-[1-({[4-methyl-2-(piperidin-1-yl)phenyl](5-methylfuran-2-yl)methyl}carbamoyl)cyclopropyl]-1H-indol-1-yl}propanoic acid] | < 10
10 | Cc1ccc(C(NC(=O)C2(c3ccc4c(c3)CCC4O)CC2)c2ccc(C)o2)c(C)c1 (stereo not shown) [Cpd. 155, N-[(2,4-dimethylphenyl)(5-methylfuran-2-yl)methyl]-1-(1-hydroxy-2,3-dihydro-1H-inden-5-yl)cyclopropane-1-carboxamide] | 10 to 100
11 | Cc1ccc(C(NC(=O)C2(c3ccc4c(c3)CS(=O)(=O)N4CC3CCOCC3)CC2)c2ccc(C)o2)c(C)c1 (stereo not shown) [Cpd. 157, N-[(2,4-dimethylphenyl)(5-methylfuran-2-yl)methyl]-1-[1-(oxan-4-ylmethyl)-2,2-dioxo-1,3-dihydro-2,1-benzothiazol-5-yl]cyclopropane-1-carboxamide] | < 10
12 | Cc1ccc(C(NC(=O)C2(c3cc(F)c4c(c3)CC(=O)N4)CC2)c2ccc(C)o2)c(C)c1 (stereo not shown) [Cpd. 158, N-[(2,4-dimethylphenyl)(5-methylfuran-2-yl)methyl]-1-(7-fluoro-2-oxo-2,3-dihydro-1H-indol-5-yl)cyclopropane-1-carboxamide] | 10 to 100
13 | Cc1ccc(C(NC(=O)C2(c3ccc4c(c3)C(F)(F)C(=O)N4)CC2)c2ccc(C)o2)c(C)c1 (stereo not shown) [Cpd. 159, 1-(3,3-difluoro-2-oxo-2,3-dihydro-1H-indol-5-yl)-N-[(2,4-dimethylphenyl)(5-methylfuran-2-yl)methyl]cyclopropane-1-carboxamide] | 100 to 1000
14 | Cc1ccc(C(NC(=O)C2(c3ccc4c(c3)CS(=O)(=O)N4C)CC2)c2ccc(Cl)o2)c(C)c1 (stereo not shown) [Cpd. 160, N-[(5-chlorofuran-2-yl)(2,4-dimethylphenyl)methyl]-1-(1-methyl-2,2-dioxo-1,3-dihydro-2,1-benzothiazol-5-yl)cyclopropane-1-carboxamide] | 10 to 100
15 | Cc1ccc(C(NC(=O)C2(c3ccc4c(c3)CS(=O)(=O)N4CC3CCOCC3)CC2)c2ccc(C)o2)c(N2CCCCC2)c1 (stereo not shown) [Cpd. 162, N-{[4-methyl-2-(piperidin-1-yl)phenyl](5-methylfuran-2-yl)methyl}-1-[1-(oxan-4-ylmethyl)-2,2-dioxo-1,3-dihydro-2,1-benzothiazol-5-yl]cyclopropane-1-carboxamide] | 10 to 100

Next, values leading:

Row | IC50 [nM] | Structure (SMILES)
16 | < 10 | Cc1ccc(C(NC(=O)C2(c3ccc4c(c3)OCC(=O)N4)CC2)c2ccc(C)o2)c(Br)c1 (stereo not shown) [Cpd. 135, N-[(2-bromo-4-methylphenyl)(5-methylfuran-2-yl)methyl]-1-(3-oxo-3,4-dihydro-2H-1,4-benzoxazin-7-yl)cyclopropane-1-carboxamide]
17 | 10 to 100 | Cc1ccc(C(NC(=O)C2(c3ccc4c(c3)OCO4)CC2)c2ccc(C)o2)c(C)c1 (stereo not shown) [Cpd. 137, 1-(2H-1,3-benzodioxol-5-yl)-N-[(2,4-dimethylphenyl)(5-methylfuran-2-yl)methyl]cyclopropane-1-carboxamide]
18 | 10 to 100 | Cc1ccc(C(NC(=O)C2(c3ccc4c(n3)OCC(=O)N4)CC2)c2ccc(C)o2)c(C)c1 (stereo not shown) [Cpd. 144, N-[(2,4-dimethylphenyl)(5-methylfuran-2-yl)methyl]-1-{2-oxo-1H,2H,3H-pyrido[2,3-b][1,4]oxazin-6-yl}cyclopropane-1-carboxamide]
19 | 10 to 100 | COc1ccc(C(NC(=O)C2(c3ccc4c(c3)OCS(=O)(=O)N4)CC2)c2ccc(C)o2)c(Br)c1 (stereo not shown) [Cpd. 147, N-[(2-bromo-4-methoxyphenyl)(5-methylfuran-2-yl)methyl]-1-(2,2-dioxo-1,3-dihydro-4,2,1-benzoxathiazin-6-yl)cyclopropane-1-carboxamide]
20 | 100 to 1000 | Cc1ccc(C(NC(=O)C2(c3ccc4c(c3)OCS(=O)(=O)N4)CC2)c2ccc(C)o2)c(N(C)C)c1 (stereo not shown) [Cpd. 148, N-{[2-(dimethylamino)-4-methylphenyl](5-methylfuran-2-yl)methyl}-1-(2,2-dioxo-1,3-dihydro-4,2,1-benzoxathiazin-6-yl)cyclopropane-1-carboxamide]
21 | 10 to 100 | Cc1ccc(C(NC(=O)C2(c3ccc4c(c3)OCS(=O)(=O)N4)CC2)c2ccc(Cl)o2)c(C)c1 (stereo not shown) [Cpd. 149, N-[(5-chlorofuran-2-yl)(2,4-dimethylphenyl)methyl]-1-(2,2-dioxo-1,3-dihydro-4,2,1-benzoxathiazin-6-yl)cyclopropane-1-carboxamide]
22 | 100 to 1000 | Cc1ccc(C(NC(=O)Cc2ccc3c(c2)OCS(=O)(=O)N3)c2ccc(C)o2)c(Br)c1 (stereo not shown) [Cpd. 150, N-[(2-bromo-4-methylphenyl)(5-methylfuran-2-yl)methyl]-2-(2,2-dioxo-1,3-dihydro-4,2,1-benzoxathiazin-6-yl)acetamide]
23 | 100 to 1000 | Cc1cnc(C(NC(=O)C2(c3ccc4c(c3)OCS(=O)(=O)N4)CC2)c2ccc(C)o2)c(C)c1 (stereo not shown) [Cpd. 153, N-[(3,5-dimethylpyridin-2-yl)(5-methylfuran-2-yl)methyl]-1-(2,2-dioxo-1,3-dihydro-4,2,1-benzoxathiazin-6-yl)cyclopropane-1-carboxamide]
24 | 10 to 100 | Cc1ccc(C(NC(=O)C2(c3ccc4c(c3)OCC(=O)N4)CC2)c2ccc(C)o2)c(N(C)C)c1 (stereo not shown) [Cpd. 156, N-{[2-(dimethylamino)-4-methylphenyl](5-methylfuran-2-yl)methyl}-1-(3-oxo-3,4-dihydro-2H-1,4-benzoxazin-7-yl)cyclopropane-1-carboxamide]
25 | 100 to 1000 | Cc1ccc(C(NC(=O)C2(c3ccc4c(c3)OCO4)CC2)c2ccc(C)o2)c(Br)c1 (stereo not shown) [Cpd. 161, 1-(2H-1,3-benzodioxol-5-yl)-N-[(2-bromo-4-methylphenyl)(5-methylfuran-2-yl)methyl]cyclopropane-1-carboxamide]
